Target: PRMT5 (Homo sapiens (Human), UniProt O14744)
Experiment: In vitro evaluation of kinase activity (PRMT5 enzymatic assay, [3H]-SAM FlashPlate)
Assay type: biochemical
Settings: polypeptide substrate H4(1-21)S1ac 100 nM, [3H]-SAM 250 nM, 25° C., 60 min; read-out: Enzyme IC50 PRMT5
Procedure: Compounds: the compounds of the present invention prepared in the above examples. Each compound was formulated into a 10 mM stock solution with DMSO, and finally diluted into 10 concentrations for detection, with the final concentrations being 10000.00 nM, 3333.33 nM, 1111.11 nM, 370.37 nM, 123.46 nM, 41.15 nM, 13.72 nM, 4.57 nM, 1.52 nM, and 0.51 nM.
Reagents and consumables: PRMTS, purchased from Active Motif, Cat. No. 31921; polypeptide substrate H4(1-21)S1ac, purchased from Gill Biochemical (Shanghai) Co., Ltd., Cat. No. 342095; [^3H]-SAM, purchased From PerkinElmer, Cat. No. NET155V001MC; SAM, purchased from Sigma, Cat. No. A7007-100MG; SAH, purchased from Sigma, Cat. No. A9384-25MG; DTT, purchased from Sangon Bioengineering (Shanghai) Co., Ltd., Cat. No. A620058-0005. Corning-3657, purchased from Corning, Cat. No. 3657; Echo Qualified 384-Well, purchased from Labcyte, Cat. No. P-05525; FlashPlate, purchased from Perkin Elmer, Cat. No. SMP410J001PK.
2.1. Preparation of reaction buffer and reaction stop solution: the composition of 1× reaction buffer was 10 mM Tris-HCl, pH 8.0; 0.01% Tween-20; and 1 mM DTT. The composition of the reaction stop solution was 125 μM […] solution.
The compounds were dissolved in 100% DMSO to prepare 10 mM stock solutions and then diluted to desired concentrations on an Echo 384 well plate.
250 nL of the compounds diluted above were transferred from the Echo 384 well plate to a 384 well reaction plate using the Echo550 instrument.
PRMT5 was added to 1× reaction buffer to form 1.67× enzyme solution.
The polypeptide substrate and [^3H]-SAM were added to 1× reaction buffer to form 2.5× substrate solution (the final concentrations were 100 nM and 250 nM, respectively).
15 μL of 1.67× enzyme solution was added to the wells of a 384 well reaction plate. For control wells without enzymatic activity, the enzyme solution was replaced with 15 μL of 1× reaction buffer. The plate was centrifuged at 1000 rpm for 1 min and incubated at room temperature for 15 min. […]

Sequence of PRMT5 (O14744 whole entry): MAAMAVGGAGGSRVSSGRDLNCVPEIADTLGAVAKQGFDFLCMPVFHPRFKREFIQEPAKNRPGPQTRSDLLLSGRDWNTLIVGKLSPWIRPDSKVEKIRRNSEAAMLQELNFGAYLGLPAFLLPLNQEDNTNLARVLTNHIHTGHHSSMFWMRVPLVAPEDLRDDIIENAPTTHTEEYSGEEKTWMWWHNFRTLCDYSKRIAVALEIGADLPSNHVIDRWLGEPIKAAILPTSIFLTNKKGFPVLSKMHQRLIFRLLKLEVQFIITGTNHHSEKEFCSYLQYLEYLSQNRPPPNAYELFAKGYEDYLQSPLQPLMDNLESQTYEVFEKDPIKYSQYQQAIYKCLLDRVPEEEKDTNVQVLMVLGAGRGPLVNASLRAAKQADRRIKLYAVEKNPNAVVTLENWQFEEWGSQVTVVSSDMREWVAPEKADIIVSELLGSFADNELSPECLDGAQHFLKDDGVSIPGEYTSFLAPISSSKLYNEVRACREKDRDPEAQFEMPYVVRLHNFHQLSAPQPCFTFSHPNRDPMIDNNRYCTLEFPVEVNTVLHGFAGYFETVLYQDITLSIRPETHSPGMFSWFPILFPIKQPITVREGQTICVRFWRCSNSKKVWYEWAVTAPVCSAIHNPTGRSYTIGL
Sequence of PRMT5 (Q9BQA1 whole entry partner): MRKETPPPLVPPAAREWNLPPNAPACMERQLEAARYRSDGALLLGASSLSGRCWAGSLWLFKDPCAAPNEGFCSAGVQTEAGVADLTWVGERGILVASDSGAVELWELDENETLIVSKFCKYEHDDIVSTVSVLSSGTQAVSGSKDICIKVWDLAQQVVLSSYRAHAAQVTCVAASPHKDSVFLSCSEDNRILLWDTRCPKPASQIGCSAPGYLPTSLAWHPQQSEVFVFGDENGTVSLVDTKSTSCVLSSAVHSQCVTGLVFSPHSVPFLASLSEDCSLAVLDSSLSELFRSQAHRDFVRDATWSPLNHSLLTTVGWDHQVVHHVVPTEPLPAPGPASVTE

`CC(=O)N1CC2(CC(Nc3ccc4c(c3)C(=O)N(C[C@H](O)CN3CCc5ccccc5C3)CC43CC3)C2)C1` [Example 10, (R)-7′-((2-Acetyl-2-azaspiro[3.3]hept-6-yl)amino)-2′-(3-(3,4-dihydroisoquinolin-2(1H)-yl)-2-hydroxypropyl)-2′,3′-dihydro-1′H-spiro[cyclopropane-1,4′-isoquinolin]-1′-one] gave an IC50 of 2660 nM.
